Data on one molecule can be found in US20070003531A1, “Methods for improving immunotherapy by enhancing survival of antigen-specific cytotoxic T lymphocytes” (University of Connecticut, priority 2005, published 2007).

The test system of one data set is helper T cells. Kind of data set: AICD in helper T cells. The format is cell-based. From the text: Thus, JNK inhibitors, when administered alone or in combination with other therapeutics, have utility for the treatment of diseases, including AIDS, for which the death of helper T cells is a factor in the etiology, mechanism or progression of that disease.
For data set [1], the system named is c-Jun phosphorylation (JNK activation) in CTL. Put plainly: c-Jun phosphorylation in CTL during AICD (immunoblot). The format is cell-based, human. The conditions noted are these: CTL re-stimulated with Mart-127-35 peptide after pre-incubation. On the procedure:
FIG. 1. […] (A) Effect of the JNK inhibitor SP600125 on AICD in the MART-127-35 epitope specific CTL. Histogram represents FACS analysis of the percent of MART-127-35 epitope specific CTLs that were tetramer positive and annexin negative after restimulation with MAGE-3271-279 control peptide (M3) pulsed T2 cells or MART-127-35 peptide (M1) pulsed T2 cells either alone or re-stimulated after pre-incubation with JNK inhibitor SP600125, p38-kinase inhibitor SB203580, ERK1/2 inhibitor PD98059 or caspase-inhibitor z-VAD-fink. MAGE-3271-279. (B) JNK activation results in phosphorylation of c-Jun during AICD in CTL that is blocked by SP600125. […] (i) Jurkat cells were treated with PMA+ionomycin in the absence or presence of SP600125 and JNK activation (c-Jun phosphorylation) was assessed with anti-phospho-c-Jun antibody. […] (ii) Jurkat cells were treated with Staurosporine for 1 and 4 hrs in the absence (S) or presence of caspase inhibitor, z-VAD-fmk (CI), JNK inhibitor, SP600125 (SP) or ERK1/2 inhibitor PD98059 (PD) and cleavage of PARP was detected by immunoblotting, using actin as a loading control. […] Percent annexin positive cells in all samples were quantified by FACS analysis and shown below the blot
Immunoblot analysis. […] Proteins bound to the resin were washed three times with RIPA buffer, re-suspended in sample buffer, and analyzed by SDS-PAGE and immunoblotting.
(A western blot detects proteins with antibodies after separation by electrophoresis.)

Another data set relates to Mart-1 primary CTLs. Put plainly: Mitochondrial transmembrane potential (DiOC6 staining). Particulars: induced by re-stimulation with cognate peptide; data not shown. The format is cell-based, human. On the procedure:
FIG. 12. Effect of antigen specific secondary stimulation on mitochondrial transmembrane membrane potential (Δψm), pro- and anti-apoptotic protein and expression of cell surface molecules. (A) Differential effect on membrane polarization in Mart-1 primary CTLs (top panel) vs. Jurkat T cells (bottom panel). CTLs were incubated with T2 cells either alone or loaded with peptide. After overnight secondary exposure cells were stained with Mart-1 tetramer/CD8 and DiOC6. Histogram represents the fluorescence of DiOC6 in the gated antigen specific tetramer^+ population (top panel). Jurkat T cells were also analyzed for modulation of membrane potential after TCR-driven stimulation (bottom panel). Values represent the mean±SD of fluorescence intensity triplicates from one out of three separate experiment. *p<0.001 (One Way ANOVA). […] (C) Expression of different cell surface receptors for survival or death signal in antigen specific population upon secondary stimulation. Values on left upper corner represent the geometric mean of the fluorescence intensity for that particular marker when stimulated with T2/MAGE-3271-279 while that on right upper corner represent the geometric mean of the fluorescence intensity when stimulated with T2/MART-127-35.

Data set [2] has as its system AIF translocation in MART-127-35 specific CTL. Put plainly: Mitochondrio-nuclear translocation/release of AIF in CTL during AICD. The format is cell-based, human. Particulars: CTL restimulated by cognate epitope. From the text: FIG. 14. Nuclear translocation of AIF and effect of SP600125 on the AIF release and such translocation. The MART-1 epitope specific CTLs generated in the in vitro CTL generation protocol were restimulated by the cognate epitope or a control epitope in the presence or absence of the JNK inhibitor SP600125. (A) Western blot of heavy membrane faction (HM) and cytosolic fraction (S-100) of control CTL (C) and CTLs restimulated by the cognate peptide (M1). As shown, AIF is released in the cytosol of CTLs encountering the cognate peptide without any release of cytochrome c. (B) Effect of SP600125 on AIF release in CD3 induced AICD in Jurkat cells. As shown, AIF is released without cytochrome c release in these cells and SP600125 interferes with the AIF release. (C) Densitometric analysis of the SP600125 effect on AIF release.
Sub-cellular Fractionation. Sub-cellular fractionation was done according to Gross, et al., with minor modifications. Heavy membrane and light membrane fractions were solublized in RIPA buffer supplemented with protease inhibitors and the proteins extracted from heavy membrane (HM), light membrane (LM) and supernatant (S-100) fractions were analyzed by immuno-blot analysis.
Immunofluorescence microscopy. […] The cells were fixed with 4% para-formaldehyde in PBS and stained with appropriate antibodies for co-localization of proteins by fluorescence microscopy. […]

Data set [3] relates to MART-127-35 epitope specific CTLs. Put plainly: Chromium release microcytotoxicity assay. Particulars: % specific lysis of peptide loaded T2 cells; inhibitor 25 μM. Type of data set: cell-based.

“Also recorded” adds a separate entry of the source.

Take `O=C1c2ccccc2-c2n[nH]c3cccc1c23` [SP600125, anthra[1,9-cd]pyrazol-6(2H)-one]: the “AICD in helper T cells” value in the data set with helper T cells is on record as “inhibit/prevent”. For the same molecule, the “c-Jun activation (phosphorylation) in CTL during AICD” value in data set [1] is recorded as “blocked”. For the same molecule, the “level of hyper polarization of mitochondrial transmembrane potential” value in the data set on Mart-1 primary CTLs was “decreased”. In addition, the “mitochondrio-nuclear translocation/release of AIF in CTL” value in data set [2] is recorded as “blocks; also recorded: blocking effect”. Besides, the “cytotoxic function of CTLs in presence of inhibitor” value in data set [3] was “did not affect; also recorded: does not affect”.
